The source of these data is article PMC10094048, “Synthesis and Anticancer Evaluation of 4-Anilinoquinolinylchalcone Derivatives” (International Journal of Molecular Sciences, 2023).

Structures can show the parent of a compound that is named as a salt. Some results are limits rather than exact numbers.

One data set relates to Huh-7. The experiment in a line: XTT antiproliferative assay, Huh-7. The conditions noted are these: Homo sapiens, 72 h, mean ± SD. Format: cell-based. As to the method: (§1) All the synthesized 4-anilinoquinolinylchalcone derivatives were evaluated in vitro against two cancer cells (Huh-7 and MDA-MB-231) and a non-cancer normal fibroblast lung cell line (MRC-5) using an XTT (sodium 3′-[1-(phenylamino-carbonyl)-3,4-tetrazolium}-bis(4-methoxy-6-nitro)benzene sulfonic acid hydrate) assay. The concentration that inhibited the growth of 50% of cells (IC50) was determined from the linear portion of the curve by calculating the concentration of the tested agent that reduced absorbance in treated cells, compared to control cells, by 50%. The IC50 results of these 4-anilinoquinolinylchalcone derivatives are summarized (Table 1). […] Thus, 4a was selected as a lead compound for further mechanism studies.
(§2) Cancer cells (Huh-7, MDA-MB-231) and normal lung cells (MRC-5) were purchased from Bioresources Collection and Research Center, Taiwan. Cells were maintained in the same standard medium, grown as a monolayer in DMEM (Gibco, Miami, FL, USA), and supplemented with 10% fetal bovine serum (FBS) and antibiotics, i.e., 100 IU/mL penicillin, 0.1 mg/mL streptomycin and 0.25 μg/mL amphotericin. The culture was maintained at 37 °C with 5% CO2 in a humidified atmosphere. Cells (5 × 10^3 cells/well) were treated with tested compounds for 72 h in the medium containing 10% FBS. Cell viability was quantitated with the use of sodium 3′-[1-(phenylamino-carbonyl)-3,4-tetrazolium}-bis(4-methoxy-6-nitro)benzene sulfonic acid hydrate (XTT) colorimetric assay (Biological Industries, Beit-Haemek, Israel). XTT labeling reagent (1 mg/mL) was mixed with electron-coupling reagent, following the manufacturer’s instructions, and 50 μL of the mixture was added directly to the cells. The plates were further incubated at 37 °C for 4 h. Color was measured spectrophotometrically in a microtiter plate reader at 492 nm and used as a relative measurement of viable cell numbers. After drug treatment, the viable cell number was compared to the solvent and untreated control cell number. This information was used to determine the percent of control growth as (Abtreated/Abcontrol) × 100, where Ab represents the mean absorbance (n = 3). The concentration that killed 50% of cells (IC50) was determined from the linear portion of the curve by calculating the concentration of the agent that reduced the absorbance in treated cells, compared to control cells, by 50%.
A general note: Tetrazolium dyes change colour on reduction, which living cells bring about.

The next data set has as its system MDA-MB-231. The experiment in a line: XTT antiproliferative assay, MDA-MB-231. Format: cell-based. The conditions noted are these: Homo sapiens, 72 h, mean ± SD. As to the method:
as §1, §2

In a further data set the test system is MRC-5. Nature of the data set: XTT antiproliferative assay, normal lung cells MRC-5. Format: cell-based. The note with it: Homo sapiens, MRC5, 72 h, mean ± SD. The protocol:
as §1, §2

Turning to `COc1cccc(COc2ccc(Nc3cc(/C=C/C(=O)c4ccc(F)cc4)nc4ccccc34)cc2)c1` [Compound 5f, (E)-1-(4-Fluorophenyl)-3-{4-{{4-[(3-methoxybenzyl)oxy]phenyl}amino}quinolin-2-yl}prop-2-en-1-one], the IC50 (as a rule, the point on the concentration scale where inhibition reaches its midpoint) with Huh-7 is 1340 ± 350 nM; with MDA-MB-231, 2030 ± 140 nM; in the data set with MRC-5 it was over 20000 nM.

As to `COc1ccc(C(=O)/C=C/c2cc(Nc3ccc(OCc4ccc(F)cc4)cc3)c3ccccc3n2)cc1` [Compound 4h, (E)-3-{4-{ {4-[ (4-Fluorobenzyl)oxy]phenyl}amino}quinolin-2-yl}-1-(4-methoxy - phenyl)prop-2-en-1-one], the results for the IC50 with Huh-7, in the data set on MDA-MB-231 and in the data set with MRC-5 were 1370 ± 280 nM, 1690 ± 210 nM and over 20000 nM, respectively.

On to `COc1ccc(C(=O)/C=C/c2cc(Nc3ccc(OCc4cccc(Cl)c4)cc3)c3ccccc3n2)cc1` (as salt: salt) [Compound 4d, (E)-3-{4-{{4-[(3-Chlorobenzyl)oxy]phenyl}amino}quinolin-2-yl}-1-(4-methoxy-phenyl) prop-2-en-1-one], for which the melting point – broadly, the temperature of the solid-liquid transition – was in the range of 132 to 133 °C.

With `O=C(/C=C/c1cc(Nc2ccc(OCc3ccc(F)cc3)cc2)c2ccccc2n1)c1ccc(F)cc1` (as salt: salt) [Compound 5h, (E)-3-{4-{{4-[(4-Fluorobenzyl)oxy]phenyl}amino}quinolin-2-yl}-1-(4-fluorophenyl)prop-2-en-1-one], the melting point lay in the range of 254 to 255 °C.

Take `COc1cccc(COc2ccc(Nc3cc(/C=C/C(=O)c4ccc(F)cc4)nc4ccccc34)cc2)c1` (as salt: salt) [Compound 5f, (E)-1-(4-Fluorophenyl)-3-{4-{{4-[(3-methoxybenzyl)oxy]phenyl}amino}quinolin-2-yl}prop-2-en-1-one]: the melting point was 165 to 166 °C.

`O=C(/C=C/c1cc(Nc2ccc(OCc3cccc(F)c3)cc2)c2ccccc2n1)c1ccc(F)cc1` [Compound 5e, (E)-3-{4-{{4-[(3-Fluorobenzyl)oxy]phenyl}amino}quinolin-2-yl}-1-(4-fluorophenyl)prop-2-en-1-one]: the IC50 was 1270 ± 60 nM with Huh-7, 1820 ± 280 nM in the data set on MDA-MB-231 and over 20000 nM in the data set on MRC-5.

Consider `COc1ccc(C(=O)/C=C/c2cc(Nc3ccc(OCc4ccccc4F)cc3)c3ccccc3n2)cc1` [Compound 4c], for which the IC50 in the data set on Huh-7 is 810 ± 60 nM; in the data set with MDA-MB-231 it was 1040 ± 40 nM; in the data set on MRC-5, over 20000 nM.

As to `COc1ccc(C(=O)/C=C/c2cc(Nc3ccc(OCc4cccc(OC)c4)cc3)c3ccccc3n2)cc1` [Compound 4f, (E)-3-{4-{{4-[(3-Methoxybenzyl)oxy]phenyl}amino}quinolin-2-yl}-1-(4-methoxy - phenyl)prop-2-en-1-one], the IC50 in the data set with Huh-7 is 1410 ± 40 nM; with MDA-MB-231, 1940 ± 520 nM; in the data set on MRC-5, over 20000 nM.

On to `O=C(/C=C/c1cc(Nc2ccc(OCc3ccc(Cl)cc3)cc2)c2ccccc2n1)c1ccc(F)cc1` (as salt: salt) [Compound 5g, (E)-3-{4-{{4-[(4-Chlorobenzyl)oxy]phenyl}amino}quinolin-2-yl}-1-(4-fluorophenyl)prop-2-en-1-one], for which the melting point was in the range of 179 to 180 °C.

Consider `O=C(/C=C/c1cc(Nc2ccc(OCc3ccc(F)cc3)cc2)c2ccccc2n1)c1ccc(F)cc1` [Compound 5h, (E)-3-{4-{{4-[(4-Fluorobenzyl)oxy]phenyl}amino}quinolin-2-yl}-1-(4-fluorophenyl)prop-2-en-1-one], for which the IC50 is 1290 ± 280 nM in the data set with Huh-7, 1680 ± 210 nM with MDA-MB-231 and over 20000 nM with MRC-5.

Regarding `O=C(/C=C/c1cc(Nc2ccc(OCc3ccccc3)cc2)c2ccccc2n1)c1ccc(F)cc1` [Compound 5a, (E)-3-{4-{[4-(Benzyloxy)phenyl]amino}quinolin-2-yl}-1-(4-fluorophenyl)prop-2-en-1-one], the results for the IC50 in the data set on Huh-7, in the data set on MDA-MB-231 and in the data set on MRC-5 were 1240 ± 90 nM, 1650 ± 770 nM and over 20000 nM, respectively.

As for `COc1ccc(C(=O)/C=C/c2cc(Nc3ccc(OCc4ccc(Cl)cc4)cc3)c3ccccc3n2)cc1` [Compound 4g, (E )-3-{4-{{4-[(4-Chlorobenzyl)oxy]phenyl}amino}quinolin-2-yl}-1-(4-methoxy - phenyl)prop-2-en-1-one], the results for the IC50 with Huh-7, in the data set with MDA-MB-231 and in the data set on MRC-5 were 1310 ± 560 nM, 1710 ± 350 nM and over 20000 nM, respectively.

As to `COc1ccc(C(=O)/C=C/c2cc(Nc3ccc(OCc4cccc(Cl)c4)cc3)c3ccccc3n2)cc1` [Compound 4d, (E)-3-{4-{{4-[(3-Chlorobenzyl)oxy]phenyl}amino}quinolin-2-yl}-1-(4-methoxy-phenyl) prop-2-en-1-one], the results for the IC50 in the data set with Huh-7, in the data set on MDA-MB-231 and in the data set on MRC-5 were 690 ± 40 nM, 180 ± 60 nM and over 20000 nM, respectively.

The compound `COc1ccc(C(=O)/C=C/c2cc(Nc3ccc(OCc4ccc(F)cc4)cc3)c3ccccc3n2)cc1` (as salt: salt) [Compound 4h, (E)-3-{4-{ {4-[ (4-Fluorobenzyl)oxy]phenyl}amino}quinolin-2-yl}-1-(4-methoxy - phenyl)prop-2-en-1-one] returned a melting point of 176 to 177 °C.

Turning to `COc1ccc(C(=O)/C=C/c2cc(Nc3ccc(OCc4ccccc4F)cc3)c3ccccc3n2)cc1` (as salt: salt) [Compound 4c], the melting point was 175 to 176 °C.

`O=C(/C=C/c1cc(Nc2ccc(OCc3cccc(Cl)c3)cc2)c2ccccc2n1)c1ccc(F)cc1` [Compound 5d, (E)-3-{4-{{4-[(3-Chlorobenzyl)oxy]phenyl}amino}quinolin-2-yl}-1-(4-fluorophenyl) prop-2-en-1-one]: the figures for the IC50 with Huh-7, with MDA-MB-231 and in the data set with MRC-5 were 1280 ± 210 nM, 1760 ± 130 nM and over 20000 nM, respectively.

Regarding `COc1ccc(C(=O)/C=C/c2cc(Nc3ccc(OCc4cccc(F)c4)cc3)c3ccccc3n2)cc1` (as salt: salt) [Compound 4e, (E)-3-{4-{{4-[(3-Fluorobenzyl)oxy]phenyl}amino}quinolin-2-yl}-1-(4-methoxy-phenyl) prop-2-en-1-one], the melting point was in the range of 171 to 172 °C.

The compound `O=C(/C=C/c1cc(Nc2ccc(OCc3cccc(Cl)c3)cc2)c2ccccc2n1)c1ccc(F)cc1` (as salt: salt) [Compound 5d, (E)-3-{4-{{4-[(3-Chlorobenzyl)oxy]phenyl}amino}quinolin-2-yl}-1-(4-fluorophenyl) prop-2-en-1-one] gave a melting point of 172 to 173 °C.

As to `O=C(/C=C/c1cc(Nc2ccc(OCc3ccc(Cl)cc3)cc2)c2ccccc2n1)c1ccc(F)cc1` [Compound 5g, (E)-3-{4-{{4-[(4-Chlorobenzyl)oxy]phenyl}amino}quinolin-2-yl}-1-(4-fluorophenyl)prop-2-en-1-one], the IC50 was 1300 ± 140 nM in the data set with Huh-7, 1500 ± 770 nM in the data set with MDA-MB-231 and over 20000 nM with MRC-5.

`O=C(/C=C/c1cc(Nc2ccc(OCc3ccccc3F)cc2)c2ccccc2n1)c1ccc(F)cc1` (as salt: salt) [Compound 5c, (E)-3-{4-{{4-[(2-Fluorobenzyl)oxy]phenyl}amino}quinolin-2-yl}-1-(4-fluorophenyl) prop-2-en-1-one]: the melting point lay in the range of 207 to 208 °C.

For the compound `COc1ccc(C(=O)/C=C/c2cc(Nc3ccc(OCc4ccccc4Cl)cc3)c3ccccc3n2)cc1` [Compound 4b, (E)-3-{4-{{4-[(2-Chlorobenzyl)oxy]phenyl}amino}quinolin-2-yl}-1-(4-methoxy - phenyl) prop-2-en-1-one], the IC50 in the data set on Huh-7 was 1830 ± 220 nM; in the data set on MDA-MB-231, 1590 ± 150 nM; with MRC-5, over 20000 nM.

Take `COc1ccc(C(=O)/C=C/c2cc(Nc3ccc(OCc4cccc(F)c4)cc3)c3ccccc3n2)cc1` [Compound 4e, (E)-3-{4-{{4-[(3-Fluorobenzyl)oxy]phenyl}amino}quinolin-2-yl}-1-(4-methoxy-phenyl) prop-2-en-1-one]: the IC50 in the data set with Huh-7 was 1450 ± 280 nM; with MDA-MB-231, 540 ± 110 nM; in the data set with MRC-5, over 20000 nM.

Turning to `O=C(/C=C/c1cc(Nc2ccc(OCc3ccccc3F)cc2)c2ccccc2n1)c1ccc(F)cc1` [Compound 5c, (E)-3-{4-{{4-[(2-Fluorobenzyl)oxy]phenyl}amino}quinolin-2-yl}-1-(4-fluorophenyl) prop-2-en-1-one], the figures for the IC50 with Huh-7, in the data set on MDA-MB-231 and in the data set on MRC-5 were 1250 ± 70 nM, 1420 ± 700 nM and over 20000 nM, respectively.

Turning to `O=C(/C=C/c1cc(Nc2ccc(OCc3ccccc3Cl)cc2)c2ccccc2n1)c1ccc(F)cc1` [Compound 5b, (E)-3-{4-{{4-[(2-Chlorobenzyl)oxy]phenyl}amino}quinolin-2-yl}-1-(4-fluorophenyl) prop-2-en-1-one], the IC50 was 1240 ± 300 nM with Huh-7, 1530 ± 210 nM with MDA-MB-231 and over 20000 nM with MRC-5.
